From article PMC10385162 (Viruses, 2023)
Several values for one entry are separate records, joined by “and”; a condition that tells them apart may be missing. Identical values can stand only once. Like-named read-outs stand apart in the source and are kept apart here.

Legend:
[1] = biological target: HIV-1 reverse transcriptase (RT)-associated RNase H (Human immunodeficiency virus type 1 group M subtype B, UniProt P03366); test: HIV-1 RT-associated RNase H inhibition assay; format: biochemical; settings: for IC50 / IC50 HIV-1 RNase H: concentration required to reduce HIV-1 RT-associated RNase H activity by 50%, mean of three independent experiments ± SD; for Percentage of residual enzymatic activity at the highest concentration tested: HIV-1 RNase H
SARS-CoV-2 WA1/2020 = test: Plaque reduction assay in Vero E6 ACE2 cells; format: cell-based; settings: for EC50 fold higher compared to 1c: plaque reduction assay
[2] = biological target: full-length SARS-CoV-2 nsp14 MTase (Severe acute respiratory syndrome coronavirus 2, UniProt P0DTD1); test: SARS-CoV-2 nsp14 N7-methyltransferase activity assay; format: biochemical; settings: absence vs presence of inhibitor; GpppA substrate, [3H]-SAM
[3] = test system: SARS-CoV-2 WA1/2020 strain; format: cell-based
[4] = biological target: SARS-CoV-2 nsp14/nsp10 ExoN (Severe acute respiratory syndrome coronavirus 2, UniProt P0DTD1); test: SARS-CoV-2 nsp14 exonuclease (ExoN) activity assay, HPLC, RNA22 substrate; format: biochemical; settings: for inhibition at 100 µM: read-out: Inhibition of ExoN activity

O=C(N/N=C/c1ccc(O)c([N+](=O)[O-])c1)c1cc2ccccc2cc1O [1a, (E)-N’-(4-Hydroxy-3-nitrobenzylidene)-3-hydroxy-2-naphthohydrazide]
IC50 ([1]; read-out: IC50 HIV-1 RNase H): 69.6 ± 8.46 µM

COc1cc(/C=N/NC(=O)c2cc3ccccc3cc2O)cc([N+](=O)[O-])c1O [1b, (E)-N′-(4-Hydroxy-5-methoxy-3-nitrobenzylidene)-3-hydroxy-2-naphthohydrazide]
IC50 ([1]; read-out: IC50 HIV-1 RNase H): 7 to 8 µM and 7.16 µM

O=C(N/N=C/c1cc(O)c(O)c([N+](=O)[O-])c1)c1cc2ccccc2cc1O [1c, (E)-N′-(3,4-Dihydroxy-5-nitrobenzylidene)-3-hydroxy-2-naphthohydrazide]
EC50 (SARS-CoV-2 WA1/2020; concentration required to reduce plaque number by 50%, 3 d, mean and SD of three independent experiments, read-out: EC50 anti-SARS-CoV-2 activity by plaque reduction assay): 10.23 ± 0.01 µM
Effect on nsp14 MTase activity (tritium incorporation) [2]: no significant differences
Effect on virus titers ([3]; 12.5 µM, A549 ACE2+ cells, MOI 0.05): no measurable effect
Reduction in virus titers ([3]; 25 µM, 24 h post-infection): 6.4 fold
Reduction in virus titers ([3]; 25 µM, 48 h post-infection): 7.8 fold
Reduction in virus titers ([3]; 50 µM, 24 h post-infection): 78.5 fold
Reduction in virus titers ([3]; 50 µM, 48 h post-infection): 48.9 fold
IC50 ([4]; RNA22 substrate, HPLC): 2200 nM
Inhibition of ExoN activity ([4]; at 100 µM): complete inhibition
IC50 ([1]; IC50 HIV-1 RNase H): 0.57 ± 0.04 µM

O=C(N/N=C/c1cc(O)ccc1O)c1cc2ccccc2cc1O [1d]
IC50 ([1]; read-out: IC50 HIV-1 RNase H): 35.9 ± 8.6 µM

COc1ccc(/C=N/NC(=O)c2cc3ccccc3cc2O)c(O)c1O [1e, (E)-N’-(2,3-Dihydroxy-4-methoxybenzylidene)-3-hydroxy-2-naphthohydrazide]
IC50 ([1]; read-out: IC50 HIV-1 RNase H): 1.02 ± 0.15 µM

O=C(N/N=C/c1ccc(O)c(O)c1O)c1cc2ccccc2cc1O [1f]
IC50 ([1]; read-out: IC50 HIV-1 RNase H): 0.93 ± 0.24 µM

COc1ccc(/C=N/NC(=O)c2cc3ccccc3cc2O)cc1O [1g]
Percentage of residual enzymatic activity at the highest concentration tested [1]: 84%
IC50 ([1]; read-out: IC50 HIV-1 RNase H): > 100 µM

O=C(N/N=C/c1ccc(O)cc1O)c1cc2ccccc2cc1O [1h]
IC50 ([1]; read-out: IC50 HIV-1 RNase H): 36.4 ± 10.5 µM

CN(C)c1ccc(/C=N/NC(=O)c2cc3ccccc3cc2O)cc1 [1i]
IC50 ([1]; read-out: IC50 HIV-1 RNase H): 27.5 ± 2.65 µM

CC(=O)Nc1ccc(/C=N/NC(=O)c2cc3ccccc3cc2O)cc1 [1j]
Percentage of residual enzymatic activity at the highest concentration tested [1]: 91%
IC50 HIV-1 RNase H [1]: inactive
IC50 ([1]; read-out: IC50 HIV-1 RNase H): > 100 µM

CCN(CC)c1ccc(/C=N/NC(=O)c2cc3ccccc3cc2O)cc1 [1k]
IC50 ([1]; read-out: IC50 HIV-1 RNase H): 7 to 8 µM and 7.94 µM

CN1CCN(c2ccc(/C=N/NC(=O)c3cc4ccccc4cc3O)cc2)CC1 [1l, (E)-N’-[4-(N-Methylpiperazinyl)benzylidene]-3-hydroxy-2-naphthohydrazide]
melting point: 256 to 257 °C
Percentage of residual enzymatic activity at the highest concentration tested [1]: 70%
IC50 HIV-1 RNase H [1]: inactive
IC50 ([1]; read-out: IC50 HIV-1 RNase H): > 100 µM

O=C(N/N=C/c1cc(O)c(O)c([N+](=O)[O-])c1)c1ccccc1O [2a, (E)-N′-(3,4-Dihydroxy-5-nitrobenzylidene)-2-hydroxybenzohydrazide]
melting point: 275 °C (dec.)
EC50 fold higher compared to 1c (SARS-CoV-2 WA1/2020): 4.3 fold
inhibition at 100 µM [4]: ~65%
IC50 ([1]; IC50 HIV-1 RNase H): 14 ± 0.97 µM

O=C(N/N=C/c1cc(O)c(O)c([N+](=O)[O-])c1)c1cccc(F)c1 [2b, (E)-N′-(3,4-Dihydroxy-5-nitrobenzylidene)-3-fluorobenzohydrazide]
melting point: 251 to 252 °C (dec.)
EC50 fold higher compared to 1c (SARS-CoV-2 WA1/2020): 3.4 fold
inhibition at 100 µM [4]: ~53%
IC50 ([1]; IC50 HIV-1 RNase H): 15.2 ± 1.35 µM

O=C(N/N=C/c1cc(O)c(O)c([N+](=O)[O-])c1)c1cccnc1 [2c, (E)-N′-(3,4-Dihydroxy-5-nitrobenzylidene)-nicotinoylhydrazide]
melting point: 250 to 251 °C (dec.)
EC50 anti-SARS-CoV-2 activity by plaque reduction assay (SARS-CoV-2 WA1/2020; concentration required to reduce plaque number by 50%, 3 d, mean and SD of three independent experiments): inactive
inhibition at 100 µM [4]: ~37%
IC50 ([1]; IC50 HIV-1 RNase H): 24.7 ± 3.89 µM

O=C(N/N=C/c1ccc(O)c(O)c1)c1cc2ccccc2cc1O [Dynasore, (E)-N′-(3,4-dihydroxybenzylidene)-3-hydroxy-2-naphthohydrazide, reference compound]
IC50 ([1]; read-out: IC50 HIV-1 RNase H): 3.1 ± 0.52 µM

CCOC(=O)C(=O)CC(=O)/C=C/c1cccn1Cc1ccc(F)cc1 [RDS1643, reference compound]
IC50 ([1]; read-out: IC50 HIV-1 RNase H): 10.8 ± 5.2 µM
